Reference: patent publication US20200270309A1, “MALEIMIDE GROUP-MODIFIED ANGIOGENESIS INHIBITOR HM-1 AND USE THEREOF” (NANJING ANJI BIOLOGICAL TECHNOLOGY CO., LTD, priority 2017, published 2020)
Where two headings read alike, the source gives them in different places. Peptide text beside a SMILES is read from it. * marks the point of attachment. X7 = O=C1C=CC(=O)N1CCOCCOCCOCCOCCOCCOCCCCCCC(=O)*; Propanoyl(3-maleimido) = O=C1C=CC(=O)N1CCC(=O)*; X40 = O=C1C=CC(=O)N1c1ccc(CCCCCCCCC(=O)*)cc1; X10 = O=C1C=CC(=O)N1CCOCCOCCOCCOCCCC(=O)*; X28 = O=C1C=CC(=O)N1CCOCCOCCOCCCCCCC(=O)*; X37 = O=C1C=CC(=O)N1c1ccc(CCCCCC(=O)*)cc1; X34 = O=C1C=CC(=O)N1CCOCCOCCOCCCCCC(=O)*; Maleimidoacetyl = O=C1C=CC(=O)N1CC(=O)*; X48 = O=C1C=CC(=O)N1CCCCCCCCCCCC(=O)*; X51 = O=C1C=CC(=O)N1c1ccccc1CC(=O)*; X67 = O=C1C=CC(=O)N1CCCCCCCCCC(=O)*; X12 = O=C1C=CC(=O)N1CCOCCCCC(=O)*; X30 = O=C1C=CC(=O)N1CCOCCOCC(=O)*; X57 = O=C1C=CC(=O)N1CCCCCCCC(=O)*; X42 = O=C1C=CC(=O)N1CCOCCC(=O)*; X45 = O=C1C=CC(=O)N1CCCCC(=O)*

Assay: Half-lives and pharmacokinetic parameters of polypeptides vs HM-1
Set-up: AUC0-∞: concentration or dose not given beside the values
Details: in vivo
[1] = read-out: T1/2β (half-life) (converted)

SMILES | AUC(0-inf) | MRT inf | clearance | half-life (T1/2β (half-life)) | AUC(0-inf) (read-out: AUC0-∞) | clearance (read-out: CL (converted)) | MRT inf (read-out: MRT0-∞) | half-life [1] | AUC0-∞
C[C@H](NC(=O)CNC(=O)[C@H](CCCNC(=N)N)NC(=O)CCCOCCOCCOCCOCCN1C(=O)C=CC1=O)C(=O)N[C@@H](CC(=O)O)C(=O)N[C@@H](CCCNC(=N)N)C(=O)N[C@@H](C)C(=O)NCC(=O)NCC(=O)NCC(=O)NCC(=O)N[C@@H](CCCNC(=N)N)C(=O)NCC(=O)N[C@@H](CC(=O)O)C(=O)O [X72] (X10-RGADRAGGGGRGD-OH) | 33800 ± 7140 ng·h/mL | 60.5 ± 12.3 h | 0.493 mL/min/kg | 41.92 ± 0.29 h | – | – | – | – | –
C[C@H](NC(=O)CNC(=O)[C@H](CCCNC(=N)N)NC(=O)CN1C(=O)C=CC1=O)C(=O)N[C@@H](CC(=O)O)C(=O)N[C@@H](CCCNC(=N)N)C(=O)N[C@@H](C)C(=O)NCC(=O)NCC(=O)NCC(=O)NCC(=O)N[C@@H](CCCNC(=N)N)C(=O)NCC(=O)N[C@@H](CC(=O)O)C(=O)O [X1] (Maleimidoacetyl-RGADRAGGGGRGD-OH) | – | – | – | – | 29000 ± 6940 ng·h/mL | 0.575 mL/min/kg | 51.9 ± 10.2 h | 35.99 ± 0.29 h | –
C[C@H](NC(=O)CNC(=O)[C@H](CCCNC(=N)N)NC(=O)CCCCCCCCCCCN1C(=O)C=CC1=O)C(=O)N[C@@H](CC(=O)O)C(=O)N[C@@H](CCCNC(=N)N)C(=O)N[C@@H](C)C(=O)NCC(=O)NCC(=O)NCC(=O)NCC(=O)N[C@@H](CCCNC(=N)N)C(=O)NCC(=O)N[C@@H](CC(=O)O)C(=O)O [X11] (X48-RGADRAGGGGRGD-OH) | 25100 ± 8260 ng·h/mL | 44.9 ± 11.6 h | 0.665 mL/min/kg | 31.08 ± 0.29 h | – | – | – | – | –
C[C@H](NC(=O)CNC(=O)[C@H](CCCNC(=N)N)NC(=O)CCCCCCOCCOCCOCCOCCOCCOCCN1C(=O)C=CC1=O)C(=O)N[C@@H](CC(=O)O)C(=O)N[C@@H](CCCNC(=N)N)C(=O)N[C@@H](C)C(=O)NCC(=O)NCC(=O)NCC(=O)NCC(=O)N[C@@H](CCCNC(=N)N)C(=O)NCC(=O)N[C@@H](CC(=O)O)C(=O)O [X89] (X7-RGADRAGGGGRGD-OH) | 33100 ± 7150 ng·h/mL | 59.1 ± 11.8 h | 0.505 mL/min/kg | 40.95 ± 0.27 h | – | – | – | – | –
C[C@H](NC(=O)CNC(=O)[C@H](CCCNC(=N)N)NC(=O)CCCCCCCCCN1C(=O)C=CC1=O)C(=O)N[C@@H](CC(=O)O)C(=O)N[C@@H](CCCNC(=N)N)C(=O)N[C@@H](C)C(=O)NCC(=O)NCC(=O)NCC(=O)NCC(=O)N[C@@H](CCCNC(=N)N)C(=O)NCC(=O)N[C@@H](CC(=O)O)C(=O)O [X9] (X67-RGADRAGGGGRGD-OH) | 31200 ± 7350 ng·h/mL | 56 ± 13.3 h | 0.537 mL/min/kg | 38.78 ± 0.31 h | – | – | – | – | –
C[C@H](NC(=O)CNC(=O)[C@H](CCCNC(=N)N)NC(=O)CCCCOCCN1C(=O)C=CC1=O)C(=O)N[C@@H](CC(=O)O)C(=O)N[C@@H](CCCNC(=N)N)C(=O)N[C@@H](C)C(=O)NCC(=O)NCC(=O)NCC(=O)NCC(=O)N[C@@H](CCCNC(=N)N)C(=O)NCC(=O)N[C@@H](CC(=O)O)C(=O)O [X52] (X12-RGADRAGGGGRGD-OH) | 27900 ± 8180 ng·h/mL | 50.1 ± 9.67 h | 0.597 mL/min/kg | 34.69 ± 0.34 h | – | – | – | – | –
C[C@H](NC(=O)CNC(=O)[C@H](CCCNC(=N)N)NC(=O)CCCCCOCCOCCOCCN1C(=O)C=CC1=O)C(=O)N[C@@H](CC(=O)O)C(=O)N[C@@H](CCCNC(=N)N)C(=O)N[C@@H](C)C(=O)NCC(=O)NCC(=O)NCC(=O)NCC(=O)N[C@@H](CCCNC(=N)N)C(=O)NCC(=O)N[C@@H](CC(=O)O)C(=O)O [X67] (X34-RGADRAGGGGRGD-OH) | 31600 ± 8030 ng·h/mL | 56.4 ± 11.6 h | 0.528 mL/min/kg | 39.09 ± 0.28 h | – | – | – | – | –
C[C@H](NC(=O)CNC(=O)[C@H](CCCNC(=N)N)NC(=O)CCCCCCCN1C(=O)C=CC1=O)C(=O)N[C@@H](CC(=O)O)C(=O)N[C@@H](CCCNC(=N)N)C(=O)N[C@@H](C)C(=O)NCC(=O)NCC(=O)NCC(=O)NCC(=O)N[C@@H](CCCNC(=N)N)C(=O)NCC(=O)N[C@@H](CC(=O)O)C(=O)O [X7] (X57-RGADRAGGGGRGD-OH) | 34500 ± 6960 ng·h/mL | 61.8 ± 14.3 h | 0.485 mL/min/kg | 42.83 ± 0.29 h | – | – | – | – | –
CSCC[C@H](NC(=O)[C@H](Cc1c[nH]cn1)NC(=O)[C@H](CCC(N)=O)NC(=O)[C@H](CCCNC(=N)N)NC(=O)CCN1C(=O)C=CC1=O)C(=O)N[C@@H](Cc1ccccc1)C(=O)N[C@@H](CO)C(=O)N[C@@H](Cc1c[nH]c2ccccc12)C(=O)N[C@H](C(=O)N[C@@H](CC(C)C)C(=O)N[C@@H](C)C(=O)N[C@@H](CCCNC(=N)N)C(=O)N[C@@H](CC(N)=O)C(=O)N[C@@H](CC(=O)O)C(=O)N[C@@H](CCC(N)=O)C(=O)N[C@@H](CCC(=O)O)C(=O)N[C@@H](CCC(=O)O)C(=O)N[C@@H](CCCNC(=N)N)C(=O)NCC(=O)N[C@@H](CC(=O)O)C(=O)O)C(C)C [P1] ({Propanoyl(3-maleimido)}-RQHMFSWVLARNDQEERGD-OH; C-terminus assumed) | – | – | – | – | – | – | – | 36.96 ± 0.25 h | 0.0336 ± 0.0083 mg/L/h
C[C@H](NC(=O)CNC(=O)[C@H](CCCNC(=N)N)NC(=O)CCN1C(=O)C=CC1=O)C(=O)N[C@@H](CC(=O)O)C(=O)N[C@@H](CCCNC(=N)N)C(=O)N[C@@H](C)C(=O)NCC(=O)NCC(=O)NCC(=O)NCC(=O)N[C@@H](CCCNC(=N)N)C(=O)NCC(=O)N[C@@H](CC(=O)O)C(=O)O [X2] ({Propanoyl(3-maleimido)}-RGADRAGGGGRGD-OH) | – | – | – | – | 27800 ± 7510 ng·h/mL | 0.6 mL/min/kg | 49.8 ± 9.73 h | 34.51 ± 0.28 h | –
C[C@H](NC(=O)CNC(=O)[C@H](CCCNC(=N)N)NC(=O)CCCCN1C(=O)C=CC1=O)C(=O)N[C@@H](CC(=O)O)C(=O)N[C@@H](CCCNC(=N)N)C(=O)N[C@@H](C)C(=O)NCC(=O)NCC(=O)NCC(=O)NCC(=O)N[C@@H](CCCNC(=N)N)C(=O)NCC(=O)N[C@@H](CC(=O)O)C(=O)O [X4] (X45-RGADRAGGGGRGD-OH) | – | – | – | – | 30100 ± 7330 ng·h/mL | 0.553 mL/min/kg | 54 ± 10.5 h | 37.44 ± 0.27 h | –
C[C@H](NC(=O)CNC(=O)[C@H](CCCNC(=N)N)NC(=O)CCCCCc1ccc(N2C(=O)C=CC2=O)cc1)C(=O)N[C@@H](CC(=O)O)C(=O)N[C@@H](CCCNC(=N)N)C(=O)N[C@@H](C)C(=O)NCC(=O)NCC(=O)NCC(=O)NCC(=O)N[C@@H](CCCNC(=N)N)C(=O)NCC(=O)N[C@@H](CC(=O)O)C(=O)O [X41] (X37-RGADRAGGGGRGD-OH) | 26500 ± 7810 ng·h/mL | 47.5 ± 13.9 h | 0.628 mL/min/kg | 32.9 ± 0.36 h | – | – | – | – | –
C[C@H](NC(=O)CNC(=O)[C@H](CCCNC(=N)N)NC(=O)COCCOCCN1C(=O)C=CC1=O)C(=O)N[C@@H](CC(=O)O)C(=O)N[C@@H](CCCNC(=N)N)C(=O)N[C@@H](C)C(=O)NCC(=O)NCC(=O)NCC(=O)NCC(=O)N[C@@H](CCCNC(=N)N)C(=O)NCC(=O)N[C@@H](CC(=O)O)C(=O)O [X56] (X30-RGADRAGGGGRGD-OH) | 32900 ± 8070 ng·h/mL | 59 ± 10.1 h | 0.507 mL/min/kg | 40.86 ± 0.29 h | – | – | – | – | –
C[C@H](NC(=O)CNC(=O)[C@H](CCCNC(=N)N)NC(=O)CCCCCCCCc1ccc(N2C(=O)C=CC2=O)cc1)C(=O)N[C@@H](CC(=O)O)C(=O)N[C@@H](CCCNC(=N)N)C(=O)N[C@@H](C)C(=O)NCC(=O)NCC(=O)NCC(=O)NCC(=O)N[C@@H](CCCNC(=N)N)C(=O)NCC(=O)N[C@@H](CC(=O)O)C(=O)O [X44] (X40-RGADRAGGGGRGD-OH) | 26800 ± 8440 ng·h/mL | 48 ± 11.6 h | 0.622 mL/min/kg | 33.26 ± 0.28 h | – | – | – | – | –
C[C@H](NC(=O)CNC(=O)[C@H](CCCNC(=N)N)NC(=O)CCOCCN1C(=O)C=CC1=O)C(=O)N[C@@H](CC(=O)O)C(=O)N[C@@H](CCCNC(=N)N)C(=O)N[C@@H](C)C(=O)NCC(=O)NCC(=O)NCC(=O)NCC(=O)N[C@@H](CCCNC(=N)N)C(=O)NCC(=O)N[C@@H](CC(=O)O)C(=O)O [X50] (X42-RGADRAGGGGRGD-OH) | – | – | – | – | 26900 ± 7090 ng·h/mL | 0.62 mL/min/kg | 48.1 ± 14.2 h | 33.33 ± 0.25 h | –
C[C@H](NC(=O)CNC(=O)[C@H](CCCNC(=N)N)NC(=O)CCCCCCOCCOCCOCCN1C(=O)C=CC1=O)C(=O)N[C@@H](CC(=O)O)C(=O)N[C@@H](CCCNC(=N)N)C(=O)N[C@@H](C)C(=O)NCC(=O)NCC(=O)NCC(=O)NCC(=O)N[C@@H](CCCNC(=N)N)C(=O)NCC(=O)N[C@@H](CC(=O)O)C(=O)O [X68] (X28-RGADRAGGGGRGD-OH) | 31800 ± 7920 ng·h/mL | 57 ± 10.3 h | 0.523 mL/min/kg | 39.52 ± 0.34 h | – | – | – | – | –
C[C@H](NC(=O)[C@H](CCCNC(=N)N)NC(=O)[C@H](CC(=O)O)NC(=O)CNC(=O)[C@H](CCCNC(=N)N)NC(=O)CCN1C(=O)C=CC1=O)C(=O)NCC(=O)NCC(=O)NCC(=O)NCC(=O)N[C@@H](CCCNC(=N)N)C(=O)NCC(=O)N[C@@H](CC(=O)O)C(=O)O [P7] ({Propanoyl(3-maleimido)}-RGDRAGGGGRGD-OH; C-terminus assumed) | – | – | – | – | 32000 ± 7820 ng·h/mL | 0.522 mL/min/kg | 57.2 ± 13.9 h | 39.63 ± 0.28 h | –
C[C@H](NC(=O)CNC(=O)[C@H](CCCNC(=N)N)NC(=O)Cc1ccccc1N1C(=O)C=CC1=O)C(=O)N[C@@H](CC(=O)O)C(=O)N[C@@H](CCCNC(=N)N)C(=O)N[C@@H](C)C(=O)NCC(=O)NCC(=O)NCC(=O)NCC(=O)N[C@@H](CCCNC(=N)N)C(=O)NCC(=O)N[C@@H](CC(=O)O)C(=O)O [X13] (X51-RGADRAGGGGRGD-OH) | 33600 ± 7340 ng·h/mL | 60 ± 12.5 h | 0.497 mL/min/kg | 41.58 ± 0.34 h | – | – | – | – | –
